Laboratory results reported in patent US11470846B2, “Herbicidal pyridino-/pyrimidino-thiazoles” (SYNGENTA PARTICIPATIONS AG, priority 2014, dated 2022).

Key:
Format in all cases: in vivo
[1] = system: Avena fatua (AVEFA); assay: Pre-emergence herbicidal activity; conditions: pre-emergence application, 1000 g/Ha, evaluated after 13 days, scale 0-5
Method: (§1) B1 Pre-Emergence Herbicidal Activity
(§2) Seeds of a variety of test species were sown in standard soil in pots: Triticum aestivium (TRZAW), Oryza sativa (ORYSA), Avena fatua (AVEFA), Alopecurus myosuroides (ALOMY), Echinochloa crus-galli (ECHCG), Lolium perenne (LOLPE), Zea Mays (ZEAMX), Abutilon theophrasti (ABUTH), Amaranthus retroflexus (AMARE) and Setaria faberi (SETFA). After cultivation for one day (pre-emergence) under controlled conditions in a glasshouse (at 24/16° C., day/night; 14 hours light; 65% humidity), the plants were sprayed with an aqueous spray solution derived from the formulation of the technical active ingredient in acetone/water (50:50) solution containing 0.5% Tween 20 (polyoxyethelyene sorbitan monolaurate, CAS RN 9005-64-5). The test plants were then grown in a glasshouse under controlled conditions (at 24/16° C., day/night; 14 hours light; 65% humidity) and watered twice daily. After 13 days, the test was evaluated (5=total damage to plant; 0=no damage to plant).

[2] = system: Oryza sativa (ORYSA); assay: Pre-emergence herbicidal activity; conditions: pre-emergence application, 1000 g/Ha, evaluated after 13 days, scale 0-5
Method: as §1, §2

[3] = system: Alopecurus myosuroides (ALOMY); assay: Pre-emergence herbicidal activity; conditions: pre-emergence application, 1000 g/Ha, evaluated after 13 days, scale 0-5
Method: as §1, §2

[4] = system: Echinochloa crus-galli (ECHCG); assay: Pre-emergence herbicidal activity; conditions: pre-emergence application, 1000 g/Ha, evaluated after 13 days, scale 0-5; Table 5
Method: as §1, §2

[5] = system: Triticum aestivium (TRZAW); assay: Pre-emergence herbicidal activity; conditions: pre-emergence application, 1000 g/Ha, evaluated after 13 days, scale 0-5
Method: as §1, §2

[6] = system: Lolium perenne (LOLPE); assay: Pre-emergence herbicidal activity; conditions: pre-emergence application, 1000 g/Ha, evaluated after 13 days, scale 0-5; Table 5
Method: as §1, §2

[7] = system: Avena fatua (AVEFA); assay: Post-emergence herbicidal activity; conditions: post-emergence application, 1000 g/Ha, evaluated after 13 days, scale 0-5
Method: (§3) B2 Post-Emergence Herbicidal Activity
(§4) Seeds of a variety of test species were sown in standard soil in pots: Triticum aestivium (TRZAW), Oryza sativa (ORYSA), Avena fatua (AVEFA), Alopecurus myosuroides (ALOMY), Echinochloa crus-galli (ECHCG), Lolium perenne (LOLPE), Zea Mays (ZEAMX), Abutilon theophrasti (ABUTH), Amaranthus retroflexus (AMARE) and Setaria faberi (SETFA). After 8 days cultivation (post-emergence) under controlled conditions in a glasshouse (at 24/16° C., day/night; 14 hours light; 65% humidity), the plants were sprayed with an aqueous spray solution derived from the formulation of the technical active ingredient in acetone/water (50:50) solution containing 0.5% Tween 20 (polyoxyethelyene sorbitan monolaurate, CAS RN 9005-64-5). The test plants were then grown in a glasshouse under controlled conditions (at 24/16° C., day/night; 14 hours light; 65% humidity) and watered twice daily. After 13 days, the test was evaluated (5=total damage to plant; 0=no damage to plant).

[8] = system: Oryza sativa (ORYSA); assay: Post-emergence herbicidal activity; conditions: post-emergence application, 1000 g/Ha, evaluated after 13 days, scale 0-5
Method: as §3, §4

[9] = system: Alopecurus myosuroides (ALOMY); assay: Post-emergence herbicidal activity; conditions: post-emergence application, 1000 g/Ha, evaluated after 13 days, scale 0-5
Method: as §3, §4

[10] = system: Echinochloa crus-galli (ECHCG); assay: Post-emergence herbicidal activity; conditions: post-emergence application, 1000 g/Ha, evaluated after 13 days, scale 0-5; Table 7
Method: as §3, §4

[11] = system: Triticum aestivium (TRZAW); assay: Post-emergence herbicidal activity; conditions: post-emergence application, 1000 g/Ha, evaluated after 13 days, scale 0-5
Method: as §3, §4

[12] = system: Lolium perenne (LOLPE); assay: Post-emergence herbicidal activity; conditions: post-emergence application, 1000 g/Ha, evaluated after 13 days, scale 0-5; Table 7
Method: as §3, §4

Compound | Control of weed species, AVEFA (damage score) [1] | Control of weed species, ORYSA (damage score) [2] | Control of weed species, ALOMY (damage score) [3] | Control of weed species, ECHCG (damage score) [4] | Control of weed species, TRZAW (damage score) [5] | Control of weed species, LOLPE (damage score) [6] | Control of weed species, AVEFA (damage score) [7] | Control of weed species, ORYSA (damage score) [8] | Control of weed species, ALOMY (damage score) [9] | Control of weed species, ECHCG (damage score) [10] | Control of weed species, TRZAW (damage score) [11] | Control of weed species, LOLPE (damage score) [12]
CN(C(=O)OC(C)(C)C)c1sc(-c2cncnc2)nc1C(F)(F)F [Compound A26] | 4 | 1 | 2 | 4 | 0 | 3 | 5 | 2 | 0 | 5 | 1 | 4
Cc1nc(-c2cncc(C#N)c2)sc1N(C)C(=O)OC(C)(C)C [Compound A7] | 4 | 1 | 1 | 2 | 1 | 2 | 4 | 1 | 1 | 5 | 2 | 3
CN(C(=O)OC(C)(C)C)c1sc(-c2cccnc2)nc1Cl [Compound A29] | 2 | 2 | 1 | 3 | 3 | 2 | 4 | 1 | 1 | 5 | 1 | 4
COc1cncc(-c2nc(C(F)(F)F)c(N(C)C(=O)OC(C)(C)C)s2)c1 [Compound A28, tert-butyl N-[2-(5-methoxy-3-pyridyl)-4-(trifluoromethyl)thiazol-5-yl]-N-methyl-carbamate] | 1 | 0 | 0 | 3 | 0 | 2 | 2 | 1 | 1 | 4 | 1 | 3
Cc1nc(-c2cccnc2)sc1N(C)C(=O)Oc1ccc([N+](=O)[O-])cc1 [Compound A61, (4-nitrophenyl) N-methyl-N-[4-methyl-2-(3-pyridyl)thiazol-5-yl]carbamate] | – | – | – | – | – | – | 2 | 0 | 0 | 1 | 1 | 1
CSc1cncc(-c2nc(C)c(N(C)C(=O)OC(C)(C)C)s2)c1 [Compound A12] | 3 | 0 | 0 | 3 | 0 | 1 | 2 | 1 | 0 | 4 | 2 | 3
CN(C(=O)OC(C)(C)C)c1sc(-c2cccnc2)nc1Br [Compound A30, tert-butyl N-[4-bromo-2-(3-pyridyl)thiazol-5-yl]-N-methyl-carbamate] | 3 | 1 | 1 | 4 | 0 | 2 | 4 | 1 | 1 | 5 | 2 | 4
CN(C(=O)OC(C)(C)C)c1sc(-c2cccnc2)nc1I [Compound A31, tert-butyl N-[4-iodo-2-(3-pyridyl)thiazol-5-yl]-N-methyl-carbamate] | 1 | 1 | 1 | 3 | 1 | 2 | 5 | 1 | 1 | 4 | 1 | 3
Cc1nc(-c2cccnc2)sc1N(C)C(=S)SC(C)(C)C [Compound A23, tert-butyl N-methyl-N-[4-methyl-2-(3-pyridyl)thiazol-5-yl]carbamodithioate] | 0 | 0 | 0 | 0 | 0 | 0 | 1 | 0 | 0 | 1 | 0 | 0
Cc1nc(-c2cccnc2)sc1N(C)C(=O)OC(C)(C)C [Compound A1, tert-butyl N-methyl-N-[4-methyl-2-(3-pyridyl)thiazol-5-yl]carbamate] | 4 | 2 | 2 | 4 | 2 | 2 | 4 | 1 | 0 | 4 | 0 | 4
CN(C(=O)OC(C)(C)C)c1sc(-c2cncc(F)c2)nc1I [Compound A52] | 3 | 1 | 0 | 2 | 0 | 3 | 4 | 0 | 1 | 4 | 1 | 3
Cc1nc(-c2cncc(F)c2)sc1NC(=O)OC(C)(C)C [Compound A35, tert-butyl N-[2-(5-fluoro-3-pyridyl)-4-methyl-thiazol-5-yl]carbamate] | – | – | – | – | – | – | 1 | 0 | 0 | 2 | 1 | 0
